Target: Cruzain (Trypanosoma cruzi, UniProt P25779)
Test: Cysteine protease inhibition, progress curve method, cruzain
Format: biochemical
Details: 4 uM Ac-Lys-Glu-Lys-Leu-Arg-AMC, 100 mM Na acetate pH 5.5, 5 mM cysteine; read-out: Cruzain Ki
Method: Standard assay conditions for the determination of kinetic constants used 10 uM fluorogenic peptide substrate, Cbz-Phe-Arg-AMC for the cysteine proteases from Leishmania spp and Schistosoma Mansoni, Cbz-Leu-Arg-AMC for the cysteine proteases from Plasmodium falciparum and Trypanosoma brucei rhodesiensi, and Ac-Lys-Glu-Lys-Leu-Arg-AMC (4 uM final substrate concentration) for the cysteine protease from Trypoanosoma cruzi, and were determined in 100 mM Na acetate at pH 5.5 containing 5 mM cysteine. Stock substrate solutions were prepared at concentrations of […] in DMSO with 10 uM (4 uM for Ac-Lys-Glu-Lys-Leu-Arg-AMC) final substrate concentration in the assays. The final DMSO concentration was 2% and the final volume was 100 uL. All assays were conducted at ambient temperature. Product progress curves were generated over 20 to 30 minutes following formation of AMC product.
Potential inhibitors were evaluated using the progress curve method. Assays were carried out in the presence of variable concentrations of test compound. Reactions were initiated by addition of enzyme to buffered solutions of inhibitor and substrate. Data analysis was conducted according to one of two procedures depending on the appearance of the progress curves in the presence of inhibitors. For those compounds whose progress curves were linear, apparent inhibition constants (Ki,app) were calculated according to equation 1 (Brandt et al., Biochemitsry, 1989, 28, 140):
v=VmA/[Ka(1+I/Ki,app)+A] (1)
Where v is the velocity of the reaction with maximal velocity Vm, A is the concentration of substrate with Michaelis constant of Ka, and I is the concentration of inhibitor.
[AMC]=vsst+(v0−vss)[1−exp (−kobst)]/kobs (2)
Where [AMC] is the concentration of product formed over time t, v0 is the initial reaction velocity and vss is the final steady state rate. Values for kobs were then analyzed as a linear function of inhibitor concentration to generate an apparent second order rate constant (kobs/inhibitor concentration or kobs/[I]) describing the time-dependent inhibition. A complete discussion of this kinetic treatment has been fully described (Morrison et al., Adv. Enzymol. Relat. Areas Mol. Biol., 1988, 61, 201).
Exemplary inhibition data for the compounds used in the present method collected in accordance with the above-described procedure are listed in Table I.

Cruzain, sequence (P25779 123-337): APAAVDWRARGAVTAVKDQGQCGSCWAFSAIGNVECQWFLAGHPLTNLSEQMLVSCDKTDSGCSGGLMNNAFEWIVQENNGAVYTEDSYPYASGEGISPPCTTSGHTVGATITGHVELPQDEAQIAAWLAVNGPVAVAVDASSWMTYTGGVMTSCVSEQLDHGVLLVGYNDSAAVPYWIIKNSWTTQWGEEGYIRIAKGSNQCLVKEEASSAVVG

SMILES	Ki [nM]
CC(C)C[C@@H](NC(=O)c1cc2cc(OCCN3CCOCC3)ccc2o1)C(=O)N[C@@H]1CCCN(S(=O)(=O)c2ccccn2)CC1=O (single isomer, unassigned) [Example 20]	8
Cc1ccc(C(=O)N[C@H](CC(C)C)C(=O)N[C@@H]2CCCN(S(=O)(=O)c3cccc[n+]3[O-])CC2=O)cn1 [Example 118]	18
CC(C)C[C@H](NC(=O)c1ccc2ccccc2n1)C(=O)NC1CCCN(Cc2ccccc2)CC1=O (stereo partly drawn) [Example 2, Quinoline-2-carboxylic acid [(S)-1-(1-benzyl-3-oxo-azepan-4-ylcarbamoyl)-3-methyl-butyl]amide]	44
CC(C)C[C@@H](NC(=O)c1cc2cc(OCCN3CCOCC3)ccc2o1)C(=O)N[C@@H]1CCCN(S(=O)(=O)c2ccccc2)CC1=O (single isomer, unassigned) [Example 7]	23
CC(C)C[C@@H](NC(=O)c1cc2cc(OCCN3CCOCC3)ccc2o1)C(=O)N[C@@H]1CCCN(S(=O)(=O)c2ccccn2)CC1=O (single isomer, unassigned) [Example 19]	2
CC(C)CC(NC(=O)c1ccc(S(C)(=O)=O)cc1)C(=O)N[C@@H]1CCCN(S(=O)(=O)c2ccccc2C#N)CC1=O (some centres unmarked) [Example 114]	14
CC(C)C[C@@H](NC(=O)c1cc2ccccc2cn1)C(=O)N[C@@H]1CCCN(S(=O)(=O)c2ccccn2)CC1=O (stereo in doubt) [Example 28, Isoquinoline-3-carboxylic acid {(S)-3-methyl-1-[3-oxo-1-(pyridine-2-sulfonyl)-azepan-4-ylcarbamoyl]-butyl}amide]	24
CC(C)C[C@@H](NC(=O)c1cc2cc(OCCN3CCCCC3)ccc2o1)C(=O)NC1CCCN(S(=O)(=O)c2ccccc2)CC1=O (single isomer, unassigned) [Example 14]	67
CC(C)C[C@@H](NC(=O)c1cc2ccccc2[nH]1)C(=O)N[C@@H]1CCCN(S(=O)(=O)c2ccccc2)CC1=O (stereo in doubt) [Example 11, 1H-Indole-2-carboxylic acid [(S)-1-(1-benzenesulfonyl-3-oxo-azepan-4-ylcarbamoyl)-3-methyl-butyl]amide]	100
CC(C)C[C@@H](NC(=O)c1cc2cc(OCCN3CCOCC3)ccc2o1)C(=O)N[C@@H]1CCCN(S(=O)(=O)c2ccccc2)CC1=O (stereo in doubt) [Example 6, 5-(2-Morpholin-4-yl-ethoxy)-benzofuran-2-carboxylic acid [(S)-1-(1-benzenesulfonyl-3-oxo-azepan-4-ylcarbamoyl)-3-methyl-butyl]amide]	21
CC(C)CC(NC(=O)c1cc2ccccc2o1)C(=O)NC1CCC(C)N(S(=O)(=O)c2ccccn2)CC1=O (stereo in doubt) [Example 181, Benzofuran-2-carboxylic acid {(S)-3-methyl-1-[(4S,7S)-7-methyl-3-oxo-1-(pyridine-2-sulfonyl)-azepan-4-ylcarbamoyl]-butyl}-amide]	15
CC(C)C[C@H](NC(=O)[C@H]1CCC(=O)N1Cc1ccccc1)C(=O)N[C@@H]1CCCN(S(=O)(=O)c2ccccn2)CC1=O [Example 158]	6.8
Cc1c(C(=O)N[C@H](CC(C)C)C(=O)N[C@H]2CCCN(S(=O)(=O)c3cccc[n+]3[O-])CC2=O)oc2ccc(F)cc12 [Example 192, 5-Fluoro-3-methyl-benzofuran-2-carboxylic acid {(S)-3-methyl-1-[3-oxo-1-(1-oxy-pyridine-2-sulfonyl)-azepan-4-ylcarbamoyl]-butyl}-amide]	14
COc1ccc2oc(C(=O)N[C@H](CC(C)C)C(=O)N[C@@H]3CCCN(S(=O)(=O)c4cccc[n+]4[O-])CC3=O)cc2c1 [Example 53, 5-Methoxy-benzofuran-2-carboxylic acid {(S)-3-methyl-1[3-oxo-1-(1-oxy-pyridine-2-sulfonyl)-azepan-4-ylcarbamoyl]-butyl}amide]	10
CC(C)C[C@@H](NC(=O)c1cc2cc(OCCN3CCOCC3)ccc2o1)C(=O)N[C@@H]1CCCN(S(=O)(=O)c2ccccn2)CC1=O [Example 18, 5-(2-Morpholino-4-yl-ethoxy)-benzofuran-2-carboxylic acid {(S)-3-methyl-1-[3-oxo-1-(pyridine-2-sulfonyl)-azepan-4-ylcarbamoyl]-butyl}1-amide]	6.3
COc1ccc(S(=O)(=O)N2CCC[C@H](NC(=O)[C@H](CC(C)C)NC(=O)CNC(=O)c3ccco3)C(=O)C2)cc1 [Example 82]	17
CC(C)C[C@@H](NC(=O)c1cc2ccccc2o1)C(=O)N[C@@H]1CCCN(S(=O)(=O)c2ccccc2)CC1=O (stereo in doubt) [Example 12, Benzofuran-2-carboxylic acid [(S)-1-(1-benzenesulfonyl-3-oxo-azepan-4-ylcarbamoyl)-3-methyl-butyl]amide]	16
CC(C)C[C@H](NC(=O)c1cnc2ccccc2n1)C(=O)N[C@@H]1CCCN(S(=O)(=O)c2cccs2)CC1=O [Example 147, Quinoxaline-2-carboxylic acid-{(S)-3-methyl-1-[3-oxo-1-(thiophene-2-sulfonyl)-azepan-4-ylcarbamoyl]-butyl}-amide]	7.5
COc1cccc2oc(C(=O)N[C@@H](CC(C)C)C(=O)N[C@H]3CCN(S(=O)(=O)c4cccc[n+]4[O-])CCC3=O)c(C)c12 [Example 203, 4-Methoxy-3-methyl-benzofuran-2-carboxylic acid {(S)-3-methyl-1-[3-oxo-1-(1-oxy-pyridine-2-sulfonyl)-azepan-4-ylcarbamoyl]-butyl}-amide]	20
CC(C)C[C@H](NC(=O)c1cc2ccccc2s1)C(=O)N[C@H]1CCCN(S(=O)(=O)c2ccccc2F)CC1=O [Example 95, Benzo[b]thiophene-2-carboxylic acid-{(S)-1-[1-(2-fluoro-benzenesulfonyl)-3-oxo-azepan-4-ylcarbamoyl]-3-methyl-butyl}-amide]	11
CC(C)C[C@@H](NC(=O)c1ccc(S(C)(=O)=O)cc1)C(=O)N[C@@H]1CCCN(S(=O)(=O)c2ccc(F)cc2)CC1=O [Example 121, 4-Methansulfonyl-N—{(S)-1-[4-fluoro-benzenesulfonyl)-3-oxo-azepan-4-carbamoyl]-3-methyl-butyl-benzamide]	11
CC(C)C[C@@H](NC(=O)c1cc2ccccc2[nH]1)C(=O)N[C@@H]1CCCN(S(=O)(=O)c2ccccn2)CC1=O (stereo in doubt) [Example 32, 1H-Indole-2-carboxylic acid {(S)-3-methyl-1-[3-oxo-1-(pyridine-2-sulfonyl)-azepan-4-ylcarbamoyl]-butyl}amide]	17
CC(C)C[C@@H](NC(=O)COc1ccc(F)cc1)C(=O)N[C@@H]1CCCN(S(=O)(=O)c2ccccn2)CC1=O (stereo in doubt) [Example 37, (S)-2-[2-(4-Fluoro-phenoxy)-acetylamino]-4-methyl-pentanoic acid [3-oxo-(pyridine-2-sulfonyl)-azepan-4-yl]-amide]	33
CC(C)CC(NC(=O)NCc1ccccc1)C(=O)NC1CCCN(S(=O)(=O)c2ccccn2)CC1=O [Example 80, (S)-2-(3-Benzyl-ureido)-4-methyl-pentanoic acid [3-oxo-carboxylic-(pyridine-2-sulfonyl)azepan4-yl]-amide]	15
CC(C)C[C@H](NC(=O)c1cnc2ccccc2n1)C(=O)N[C@H]1CCCN(S(=O)(=O)c2ccccc2F)CC1=O [Example 96, Quinoxaline-2-carboxylic acid-{(S)-1-[1-(2-fluoro-benzenesulonyl)-3-oxo-azepan-4-ylcarbamoyl]-3-methyl-butyl}-amide]	8.7
CC(C)C[C@@H](NC(=O)c1ccc2c(c1)OCCCO2)C(=O)N[C@@H]1CCCN(S(=O)(=O)c2cccc[n+]2[O-])CC1=O [Example 60, 3,4-Dihydro-2H-benzo[b][1,4]dioxepine-7-carboxylic acid {(S)-3-methyl-1-[3-oxo-1-(1-oxy-pyridine-2-sulfonyl)-azepan-4-ylcarbamoyl]butyl}amide]	9.8
CC(C)C[C@@H](NC(=O)c1cc2cc(F)c(F)cc2o1)C(=O)N[C@H]1CCCN(S(=O)(=O)c2cccc[n+]2[O-])CC1=O [Example 163, 5,6-Difluoro-benzofuran-2-carboxylic acid {(S)-3-methyl-1-[3-oxo-1-(1-oxy-pyridine-2-sulfonyl)-azepan-4-ylcarbamoyl]-butyl}amide]	13
CC(C)C[C@H](NC(=O)c1cc2ccccc2o1)C(=O)N[C@H]1CCCN(S(=O)(=O)c2cccs2)CC1=O [Example 38, Benzofuran-2-carboxylic acid {(S)-3-methyl-1-[3-oxo-1-(thiophene-2-sulfonyl)-azepan-4-ylcarbamoyl]-butyl}-amide]	4.5
CC(C)CC(NC(=O)c1cc2ccccc2o1)C(=O)N[C@@H]1CCCN(S(=O)(=O)c2ccccc2C#N)CC1=O (some centres unmarked) [Example 115]	14

Reference: patent publication US20030044399A1, “Method of treatment” (SmithKline Beecham Corporation, priority 1998, published 2003)
